The test system of one data set is Raw264.7 macrophages. Kind of data set: Phagocytosis of GFP C. albicans by macrophages, flow cytometry. It is filed as cell-based, mouse. As to conditions: 2 h pre-treatment. As to the method:
Compromise of host immune function and other target-related toxicities preclude the use of non-species-selective Hsp90 inhibitors in the treatment of fungal infections. Host defense against invasive infection relies heavily on the ingestion and destruction of C. albicans by innate immune cells, such as macrophages. […] After an additional two hours, phagocytosis of the fluorescently labeled fungi was measured by flow cytometry. […] This Hsp90-dependent morphogenetic program has an important role in the organism’s virulence and interactions with host immune effectors such as macrophages.
The ingestion of GFP-marked C. albicans CaCi-2 (CaLC867, Table S4) by mouse macrophages was monitored using flow cytometry. Raw264.7 macrophage cultures were pre-treated with various concentrations of Hsp90 inhibitors for 2 h at 37 °C and then infected with fungus at a multiplicity of infection of ~2 for an additional 2 h. Wells were harvested by trypsinization and resultant cell suspensions incubated with Guava ViaCount reagent per manufacturer’s recommendation (Millipore Sigma, Cat #4000-0040). Red fluorescent signal was used to identify macrophages while green fluorescent signal identified the fungus. Dual positive (red and green) events with appropriate forward- and side-scatter parameters were quantitated as representative of ingestion of fungus by a macrophage. […]

On to `COc1ccc(CON=C2C=CC=CC3OC3CC(C)OC(=O)c3c(O)cc(O)cc3C2)cc1` (centres unmarked) [CMLD013075], for which the “effect on engulfment of C. albicans” value in the data set with Raw264.7 macrophages is recorded as “Neither compound impaired engulfment”. Also, the heat-shock reporter activation result with 293T reporter cells is on record as “activation required much higher concentrations”.
